Experimental data published in PMC4878759 (PLoS ONE, 2016).

What was measured:
ANO1 [1] = system: ANO1; parameters: method as in PMID 25739000; settings: spontaneously hypertensive rats (SHRs) ref [8]; cited from earlier work
VRAC [2] = experiment: VRAC activity by YFP quenching in LN215 cells; type: cell-based, human; settings: 10 μM
Experimental: LN215 cells, a human glioma cell line, were stably transfected with YFP-F46L/H148Q/I152L, a halide sensor YFP. After the cells were incubated on 96well black plates (Corning Inc., Corning, NY) for 48 hours, each well of the 96-well plate was washed 3 times in PBS (200 μL/wash), and the wells were filled with 50 μl/well isotonic solution (in mM): 140 NaCl, 5 KCl, 20 HEPES (310 mOsm/kg; pH 7.4 with NaOH). In each well, VRAC expressed on the cells were stimulated with addition of 50 μl of hypotonic solutions (in mM): 5 KCl, 20 HEPES, 90 mannitol (120 mOsm/kg). Test compounds (1 μL) were added to each well in a dose dependent manner. After 5 min, 96-well plates were transferred to a plate reader for fluorescence assay. Each well was assayed individually for VRAC-mediated I^- influx by recording fluorescence continuously (400 ms per point) for 7.6 s. YFP fluorescence was recorded 0.4 s for baseline, then 100 μL of 140 mM I^- solution was added at 0.4 s to see the change in fluorescence. Initial iodide influx rate was determined from the initial slope of fluorescence decrease, by nonlinear regression, following infusion of iodide.

VRAC [3] = system: VRAC; parameters: method as in PMID 24965069, PMID 25163766, PMID 26438191; settings: ref [26]–[28]; cited from earlier work
ANO1 [4] = target: T1, ANO1 (Homo sapiens, UniProt Q5XXA6, DEL476-501); experiment: Apical membrane current in ANO1 expressing FRT cells; type: cell-based; settings: 100 μM ATP
T1 construct: expressed in transfected cells
T1 sequence (Q5XXA6 with tags, fused parts or gaps isoform Q5XXA6-5 DEL539-564): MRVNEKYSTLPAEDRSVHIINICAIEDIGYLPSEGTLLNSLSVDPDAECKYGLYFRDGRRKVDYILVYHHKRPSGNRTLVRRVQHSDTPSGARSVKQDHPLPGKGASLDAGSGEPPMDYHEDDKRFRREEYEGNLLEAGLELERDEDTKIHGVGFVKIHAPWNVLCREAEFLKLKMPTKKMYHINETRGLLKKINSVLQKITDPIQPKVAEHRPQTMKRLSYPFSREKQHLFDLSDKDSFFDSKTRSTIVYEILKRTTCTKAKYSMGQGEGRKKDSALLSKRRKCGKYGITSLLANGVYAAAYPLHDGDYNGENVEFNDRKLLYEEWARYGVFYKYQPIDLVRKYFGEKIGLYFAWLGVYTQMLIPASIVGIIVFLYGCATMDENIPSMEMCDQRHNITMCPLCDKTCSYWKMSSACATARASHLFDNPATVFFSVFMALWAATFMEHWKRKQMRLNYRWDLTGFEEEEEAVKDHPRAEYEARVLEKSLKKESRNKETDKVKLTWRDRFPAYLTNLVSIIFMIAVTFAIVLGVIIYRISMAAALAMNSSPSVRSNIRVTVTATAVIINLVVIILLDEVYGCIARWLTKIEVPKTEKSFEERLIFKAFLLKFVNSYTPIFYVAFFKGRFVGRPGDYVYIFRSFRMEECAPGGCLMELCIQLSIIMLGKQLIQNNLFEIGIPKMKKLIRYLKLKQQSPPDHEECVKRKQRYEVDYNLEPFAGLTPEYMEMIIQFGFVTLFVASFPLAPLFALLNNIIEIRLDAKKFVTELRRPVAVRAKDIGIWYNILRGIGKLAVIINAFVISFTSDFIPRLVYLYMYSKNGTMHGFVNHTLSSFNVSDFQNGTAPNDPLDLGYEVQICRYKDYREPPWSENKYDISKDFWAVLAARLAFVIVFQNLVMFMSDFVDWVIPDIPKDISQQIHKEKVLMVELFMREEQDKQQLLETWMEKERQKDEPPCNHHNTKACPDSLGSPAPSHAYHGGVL
Experimental: (§1) Snapwell inserts containing ANO1, ANO2 or CFTR expressing FRT cells, ENaC expressing T-84 cells or the human primary airway epithelial cells were mounted in Ussing chambers (Physiologic Instruments, San Diego, CA). To induce transcriptional ENaC induction, the polarized T84 cells were incubated with 2 mM sodium butyrate for 2 days. To increase the functional expression of ANO1, the human airway epithelial cells were treated with IL-4 (10 ng/mL) for 2 days. For T-84 and the human primary airway epithelial cells, the apical and basolateral bath were filled with HCO3^—buffered solution containing (in mM): 120 NaCl, 5 KCl, 1 MgCl2, 1 CaCl2, 10 D-glucose, 2.5 HEPES, and 25 NaHCO3 (pH 7.4). For FRT cells, the basolateral bath was filled with the HCO3^—buffered solution and the apical bath was filled with a half-Cl^- solution. In the half-Cl^- solution 65 mM NaCl in the HCO3^—buffered solution was replaced by Na-gluconate. […] ATP was applied to the apical bath solution to induce intracellular calcium increase. […] Apical membrane currents were measured with an EVC4000 Multi-Channel V/I Clamp (World Precision Instruments, Sarasota, FL) and PowerLab 4/35 (AD Instruments, Castle Hill, Australia). Data were analyzed using Labchart Pro 7 (AD Instruments). The sampling rate was 4 Hz.

ANO1 [5] = system: ANO1; parameters: method as in PMID 25848051; settings: mice ref [14]; cited from earlier work
mouse ANO2 = target: T2, mouse ANO2 (Mus musculus, UniProt Q8CFW1); experiment: YFP quenching assay in FRT cells expressing ANO2; type: cell-based; settings: dose dependent, 100 μM ATP
T2 sequence (Q8CFW1 1-1002): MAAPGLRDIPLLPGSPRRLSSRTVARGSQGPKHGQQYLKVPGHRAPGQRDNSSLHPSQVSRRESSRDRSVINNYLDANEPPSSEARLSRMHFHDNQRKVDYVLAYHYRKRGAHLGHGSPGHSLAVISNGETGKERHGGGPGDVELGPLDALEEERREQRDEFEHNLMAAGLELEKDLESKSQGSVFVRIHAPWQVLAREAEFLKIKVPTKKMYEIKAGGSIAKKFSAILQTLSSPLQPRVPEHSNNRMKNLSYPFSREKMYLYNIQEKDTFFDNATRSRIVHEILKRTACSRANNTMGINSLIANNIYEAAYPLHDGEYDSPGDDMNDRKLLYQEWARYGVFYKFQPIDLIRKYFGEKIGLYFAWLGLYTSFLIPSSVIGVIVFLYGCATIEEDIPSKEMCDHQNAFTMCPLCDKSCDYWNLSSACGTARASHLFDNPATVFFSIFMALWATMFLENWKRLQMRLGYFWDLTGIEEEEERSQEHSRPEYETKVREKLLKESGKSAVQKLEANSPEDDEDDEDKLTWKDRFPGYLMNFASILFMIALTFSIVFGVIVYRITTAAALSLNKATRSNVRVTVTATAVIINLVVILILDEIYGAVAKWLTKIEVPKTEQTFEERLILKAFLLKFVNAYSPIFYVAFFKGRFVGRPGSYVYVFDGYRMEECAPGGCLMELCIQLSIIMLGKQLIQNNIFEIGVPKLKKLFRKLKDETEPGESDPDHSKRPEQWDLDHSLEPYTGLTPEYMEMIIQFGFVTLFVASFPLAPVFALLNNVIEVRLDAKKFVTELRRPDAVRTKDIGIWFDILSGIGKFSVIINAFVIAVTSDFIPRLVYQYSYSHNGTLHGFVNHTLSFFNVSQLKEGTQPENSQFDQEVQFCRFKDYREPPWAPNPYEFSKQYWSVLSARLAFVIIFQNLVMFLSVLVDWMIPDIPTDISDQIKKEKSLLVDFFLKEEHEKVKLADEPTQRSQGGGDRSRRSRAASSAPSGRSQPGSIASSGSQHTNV

ANO2 = target: T3, ANO2 (Mus musculus, UniProt Q8CFW1); experiment: Apical membrane current in FRT-ANO2 cells; type: cell-based; settings: 10 μM pretreatment
T3 sequence (Q8CFW1 1-1002): T2 sequence (Q8CFW1 1-1002)
Experimental: as §1
ANO1 belongs to anoctamin gene family which contains ten members presenting eight-pass transmembrane segments with cytosolic N- and C-terminals. ANO2 shares a high level of amino acid homology to ANO1 (~60%) and, ANO1 and ANO2 are confirmed CaCCs. However, the roles of other family members (ANO3-ANO10) remain poorly understood and controversial. […] We investigated the effect of these inhibitors on ANO2-mediated apical membrane current in FRT-ANO2 cells.

CaCCs in NHNE cells = target: T4, CaCCs in NHNE cells (Homo sapiens, UniProt Q5XXA6); experiment: Short-circuit current of CaCC in IL-4 treated NHNE cells; type: cell-based; settings: 100 μM
T4 sequence (Q5XXA6 1-986): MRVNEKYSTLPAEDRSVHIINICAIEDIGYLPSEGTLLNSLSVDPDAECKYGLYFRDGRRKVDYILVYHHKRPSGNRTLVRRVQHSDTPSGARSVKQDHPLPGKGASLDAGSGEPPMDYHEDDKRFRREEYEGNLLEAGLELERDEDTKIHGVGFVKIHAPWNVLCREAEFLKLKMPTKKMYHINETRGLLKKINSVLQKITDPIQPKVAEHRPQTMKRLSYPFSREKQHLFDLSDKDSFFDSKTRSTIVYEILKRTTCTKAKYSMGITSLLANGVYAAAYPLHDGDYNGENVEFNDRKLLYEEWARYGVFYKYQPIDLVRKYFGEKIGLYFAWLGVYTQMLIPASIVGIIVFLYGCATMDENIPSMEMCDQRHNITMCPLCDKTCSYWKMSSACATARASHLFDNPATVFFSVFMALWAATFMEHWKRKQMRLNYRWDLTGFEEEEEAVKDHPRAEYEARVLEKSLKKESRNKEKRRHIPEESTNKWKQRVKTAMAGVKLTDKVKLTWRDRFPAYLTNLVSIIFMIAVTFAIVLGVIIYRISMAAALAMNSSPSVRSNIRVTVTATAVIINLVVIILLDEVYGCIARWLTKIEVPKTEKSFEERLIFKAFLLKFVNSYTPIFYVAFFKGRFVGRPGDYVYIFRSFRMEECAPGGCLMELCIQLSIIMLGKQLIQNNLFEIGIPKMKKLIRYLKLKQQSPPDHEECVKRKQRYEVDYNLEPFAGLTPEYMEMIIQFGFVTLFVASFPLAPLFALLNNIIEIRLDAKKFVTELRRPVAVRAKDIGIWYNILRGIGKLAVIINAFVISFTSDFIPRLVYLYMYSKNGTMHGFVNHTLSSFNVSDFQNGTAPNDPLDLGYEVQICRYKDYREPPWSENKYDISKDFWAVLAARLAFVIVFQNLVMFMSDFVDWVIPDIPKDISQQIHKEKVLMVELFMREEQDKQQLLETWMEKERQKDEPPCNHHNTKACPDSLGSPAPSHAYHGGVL
Experimental: Snapwell inserts containing ANO1, ANO2 or CFTR expressing FRT cells, ENaC expressing T-84 cells or the human primary airway epithelial cells were mounted in Ussing chambers (Physiologic Instruments, San Diego, CA). To induce transcriptional ENaC induction, the polarized T84 cells were incubated with 2 mM sodium butyrate for 2 days. To increase the functional expression of ANO1, the human airway epithelial cells were treated with IL-4 (10 ng/mL) for 2 days. For T-84 and the human primary airway epithelial cells, the apical and basolateral bath were filled with HCO3^—buffered solution containing (in mM): 120 NaCl, 5 KCl, 1 MgCl2, 1 CaCl2, 10 D-glucose, 2.5 HEPES, and 25 NaHCO3 (pH 7.4). For FRT cells, the basolateral bath was filled with the HCO3^—buffered solution and the apical bath was filled with a half-Cl^- solution. In the half-Cl^- solution 65 mM NaCl in the HCO3^—buffered solution was replaced by Na-gluconate. […] ATP was applied to the apical bath solution to induce intracellular calcium increase. […] Apical membrane currents were measured with an EVC4000 Multi-Channel V/I Clamp (World Precision Instruments, Sarasota, FL) and PowerLab 4/35 (AD Instruments, Castle Hill, Australia). Data were analyzed using Labchart Pro 7 (AD Instruments). The sampling rate was 4 Hz. […]

Compound | effect on BP (ANO1 [1]) | inhibition of VRAC activity (VRAC [2]) [%] | block of VRAC activity (VRAC [3]) | inhibition of ATP-induced ANO1 current (ANO1 [4]; 10 μM pretreatment) | IC50 (ANO1 [4]; apical membrane current, 20 min pretreatment, read-out: IC50 of ATP-induced ANO1 activation) [nM] | effect on capsaicin-evoked pain-related behaviors (ANO1 [5]) | effect on ANO2 activity (mouse ANO2) | effect on ATP-induced ANO2 current (ANO2) | effect on remaining CaCCs currents (CaCCs in NHNE cells)
CCc1c(C)nc(SCC(=O)Nc2nc(-c3ccc(OC)cc3)cs2)[nH]c1=O [Ani T16Ainh-A01] | significantly reduced | 71.2 ± 1.6 | potently blocked | almost complete inhibition | 1390 ± 590 | significantly reduced | potently blocked | strongly blocked | 
tannic acid |  |  |  |  |  |  |  |  | abolished
